One test addresses T1, PI3Kγ (Homo sapiens, UniProt P48736).
T1 construct: host or cells: THP-1
Briefly: PI3Kγ cellular assay in THP-1 cells (AKT pS473 AlphaLISA). The class given is cell-based. Conditions: Table 1, rhMCP-1 stimulated AKT pS473, read-out: cellular potency (PI3Kγ IC50). The gist of the method:
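Serum-starved THP-1 cells (1.8×10^5/well, serum-free DMEM) treated with compounds from 4 nM to 30 μM in 2% DMSO, then stimulated and lysed.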
A general note: Alpha assays give light when donor and acceptor beads are brought close together.

The next test concerns the target T2, PI3Kγ (p120γ) (Homo sapiens, UniProt P48736).
T2 construct: purchased Promega V1761
Briefly: Inhibition of PI3K kinase activity (ADP Glo), PI3Kγ. As to conditions: Table 1, p120γ, read-out: biochemical potency (PI3Kγ IC50). The procedure, abridged: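 Recombinant p120γ (8 nM, 2× stock) was preincubated with compound for 1 h at rt in HEPES pH 7.4, NaCl, MgCl2 and 0.05% BSA. Reaction was started with PIP2 (0.1 mg/ml, 2×) and ATP (50 μM, 2×) and ran 60 min at rt. ADP formed was read by ADP-Glo luminescence, and IC50 came from a 4-parameter fit.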
(In general: In ADP-Glo the light output rises with the ADP produced.)

For 15 compounds, IC50 results are on record in US20230024302A1, “2,3,5-TRISUBSTITUTED PYRAZOLO[1,5-A]PYRIMIDINE COMPOUNDS” (Arcus Biosciences, Inc., priority 2019, published 2023).

T1 sequence (P48736 whole entry): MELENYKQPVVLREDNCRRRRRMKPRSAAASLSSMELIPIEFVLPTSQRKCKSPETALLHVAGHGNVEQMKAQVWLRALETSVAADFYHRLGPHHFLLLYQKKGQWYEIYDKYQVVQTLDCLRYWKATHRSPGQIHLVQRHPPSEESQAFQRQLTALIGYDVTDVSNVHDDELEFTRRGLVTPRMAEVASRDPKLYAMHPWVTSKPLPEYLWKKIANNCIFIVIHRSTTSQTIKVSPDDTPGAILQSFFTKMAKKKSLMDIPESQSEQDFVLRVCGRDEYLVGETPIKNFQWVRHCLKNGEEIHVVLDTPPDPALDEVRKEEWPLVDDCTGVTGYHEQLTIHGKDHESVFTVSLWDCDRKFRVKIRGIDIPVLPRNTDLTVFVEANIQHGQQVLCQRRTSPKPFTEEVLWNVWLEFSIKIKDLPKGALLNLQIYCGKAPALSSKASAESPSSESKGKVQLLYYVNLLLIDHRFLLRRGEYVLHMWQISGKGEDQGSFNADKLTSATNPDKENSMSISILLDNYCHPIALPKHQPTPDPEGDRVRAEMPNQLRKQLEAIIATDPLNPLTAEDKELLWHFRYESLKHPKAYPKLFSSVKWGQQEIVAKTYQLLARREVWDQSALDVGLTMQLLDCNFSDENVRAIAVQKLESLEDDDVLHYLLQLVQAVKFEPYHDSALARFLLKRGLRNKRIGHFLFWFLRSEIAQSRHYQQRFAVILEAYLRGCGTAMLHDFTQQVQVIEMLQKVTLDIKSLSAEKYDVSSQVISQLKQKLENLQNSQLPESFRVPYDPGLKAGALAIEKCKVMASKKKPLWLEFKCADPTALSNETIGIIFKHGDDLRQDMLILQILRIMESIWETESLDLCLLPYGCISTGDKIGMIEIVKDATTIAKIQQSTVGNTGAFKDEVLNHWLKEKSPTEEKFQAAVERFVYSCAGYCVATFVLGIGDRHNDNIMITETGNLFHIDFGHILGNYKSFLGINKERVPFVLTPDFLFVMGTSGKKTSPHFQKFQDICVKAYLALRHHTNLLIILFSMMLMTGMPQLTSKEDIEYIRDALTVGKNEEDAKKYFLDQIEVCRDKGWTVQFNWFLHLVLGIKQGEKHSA
T2 sequence (P48736 whole entry): as above

Consider `C[C@@H](C1CC1)N1Cc2cc(-c3ccn4nc(N)c(C(=O)Nc5ccc(CO)cc5)c4n3)cc(NS(C)(=O)=O)c2C1=O` [Example 105, 2-Amino-5-{2-[(1S)-1-cyclopropylethyl]-7-methanesulfonamido-1-oxo-2,3-dihydro-1H-isoindol-5-yl}-N-[4-(hydroxymethyl)phenyl]pyrazolo[1,5-a]pyrimidine-3-carboxamide], for which the IC50 on PI3Kγ and at PI3Kγ (p120γ) was below 100 nM in each case.
Turning to `C[C@@H](C1CC1)N1Cc2cc(-c3ccn4nc(N)c(C(=O)Nc5cnn(CC(F)(F)F)c5)c4n3)cc(NS(C)(=O)=O)c2C1=O` [Example 106, 2-Amino-5-{2-[(1S)-1-cyclopropylethyl]-7-methanesulfonamido-1-oxo-2,3-dihydro-1H-isoindol-5-yl}-N-[1-(2,2,2-trifluoroethyl)-1H-pyrazol-4-yl]pyrazolo[1,5-a]pyrimidine-3-carboxamide], the IC50 on PI3Kγ and on PI3Kγ (p120γ) was below 100 nM in each case.
For `Cc1nn(C)cc1NC(=O)c1c(N)nn2ccc(-c3cc4c(c(NS(C)(=O)=O)c3)C(=O)N([C@@H](C)C3CC3)C4)nc12` [Example 107, 2-Amino-5-{2-[(1S)-1-cyclopropylethyl]-7-methanesulfonamido-1-oxo-2,3-dihydro-1H-isoindol-5-yl}-N-(1,3-dimethyl-1H-pyrazol-4-yl)pyrazolo[1,5-a]pyrimidine-3-carboxamide], the IC50 on PI3Kγ and on PI3Kγ (p120γ) was below 100 nM each time.
`Cc1c(NC(=O)c2c(N)nn3ccc(-c4cc5c(c(NS(C)(=O)=O)c4)C(=O)N([C@@H](C)C4CC4)C5)nc23)cnn1C` [Example 108, 2-Amino-5-{2-[(1S)-1-cyclopropylethyl]-7-methanesulfonamido-1-oxo-2,3-dihydro-1H-isoindol-5-yl}-N-(1,5-dimethyl-1H-pyrazol-4-yl)pyrazolo[1,5-a]pyrimidine-3-carboxamide]: the IC50 at PI3Kγ and at PI3Kγ (p120γ) was below 100 nM each time.
Turning to `C[C@@H](C1CC1)N1Cc2cc(-c3ccn4nc(N)c(C(=O)Nc5ncn(C)n5)c4n3)cc(NS(C)(=O)=O)c2C1=O` [Example 109, 2-Amino-5-{2-[(1S)-1-cyclopropylethyl]-7-methanesulfonamido-1-oxo-2,3-dihydro-1H-isoindol-5-yl}-N-(1-methyl-1H-1,2,4-triazol-3-yl)pyrazolo[1,5-a]pyrimidine-3-carboxamide], the IC50 on PI3Kγ is 100 to 1000 nM; at PI3Kγ (p120γ) it was below 100 nM.
Consider `CCS(=O)(=O)Nc1cc(-c2ccn3nc(N)c(C(=O)NC4CC4)c3n2)cc2c1C(=O)N([C@@H](C)C1CC1)C2` [Example 110, 2-Amino-N-cyclopropyl-5-{2-[(1S)-1-cyclopropylethyl]-7-ethanesulfonamido-1-oxo-2,3-dihydro-1H-isoindol-5-yl}pyrazolo[1,5-a]pyrimidine-3-carboxamide], for which the IC50 on PI3Kγ and on PI3Kγ (p120γ) was below 100 nM in each case.
In the case of `CCS(=O)(=O)Nc1cc(-c2ccn3nc(N)c(C(=O)N[C@H]4C[C@](C)(O)C4)c3n2)cc2c1C(=O)N([C@@H](C)C1CC1)C2` [Example 111, 2-Amino-5-{2-[(1S)-1-cyclopropylethyl]-7-ethanesulfonamido-1-oxo-2,3-dihydro-1H-isoindol-5-yl}-N-[trans-3-hydroxy-3-methylcyclobutyl]pyrazolo[1,5-a]pyrimidine-3-carboxamide], the IC50 on PI3Kγ and on PI3Kγ (p120γ) was below 100 nM throughout.
Regarding `CCS(=O)(=O)Nc1cc(-c2ccn3nc(N)c(C(=O)Nc4cccnc4)c3n2)cc2c1C(=O)N([C@@H](C)C1CC1)C2` [Example 112, 2-Amino-5-{2-[(1S)-1-cyclopropylethyl]-7-ethanesulfonamido-1-oxo-2,3-dihydro-1H-isoindol-5-yl}-N-(pyridin-3-yl)pyrazolo[1,5-a]pyrimidine-3-carboxamide], the IC50 on PI3Kγ and on PI3Kγ (p120γ) was below 100 nM each time.
On to `COCCS(=O)(=O)Nc1cc(-c2ccn3nc(N)c(C(=O)NC4CC4)c3n2)cc2c1C(=O)N([C@@H](C)C1CC1)C2` [Example 113, 2-Amino-N-cyclopropyl-5-{2-[(1S)-1-cyclopropylethyl]-7-(2-methoxyethanesulfonamido)-1-oxo-2,3-dihydro-1H-isoindol-5-yl}pyrazolo[1,5-a]pyrimidine-3-carboxamide], for which the IC50 at PI3Kγ and at PI3Kγ (p120γ) was below 100 nM in each case.
For the compound `C[C@@H](C1CC1)N1Cc2cc(-c3ccn4nc(N)c(C(=O)NC5CC5)c4n3)cc(N(C)S(C)(=O)=O)c2C1=O` [Example 114, 2-Amino-N-cyclopropyl-5-{2-[(1S)-1-cyclopropylethyl]-7-(N-methylmethanesulfonamido)-1-oxo-2,3-dihydro-1H-isoindol-5-yl}pyrazolo[1,5-a]pyrimidine-3-carboxamide], the IC50 on PI3Kγ and at PI3Kγ (p120γ) was below 100 nM in each case.
As for `C[C@H](N1Cc2cc(-c3ccn4nc(N)c(C(=O)NC5CC5)c4n3)cc(NS(C)(=O)=O)c2C1=O)C(F)(F)F` [Example 115, 2-Amino-N-cyclopropyl-5-{7-methanesulfonamido-1-oxo-2-[(2S)-1,1,1-trifluoropropan-2-yl]-2,3-dihydro-1H-isoindol-5-yl}pyrazolo[1,5-a]pyrimidine-3-carboxamide], the concentration for half-maximal inhibition (IC50) on PI3Kγ and on PI3Kγ (p120γ) was below 100 nM throughout.
`C[C@H](N1Cc2cc(-c3ccn4nc(N)c(C(=O)NC5COC5)c4n3)cc(NS(C)(=O)=O)c2C1=O)C(F)(F)F` [Example 116, 2-Amino-5-{7-methanesulfonamido-1-oxo-2-[(2S)-1,1,1-trifluoropropan-2-yl]-2,3-dihydro-1H-isoindol-5-yl}-N-(oxetan-3-yl)pyrazolo[1,5-a]pyrimidine-3-carboxamide]: the IC50 on PI3Kγ and at PI3Kγ (p120γ) was below 100 nM throughout.
`C[C@H](N1Cc2cc(-c3ccn4nc(N)c(C(=O)NC5(C#N)COC5)c4n3)cc(NS(C)(=O)=O)c2C1=O)C(F)(F)F` [Example 117, (S)-2-Amino-N-(3-cyanooxetan-3-yl)-5-(7-(methylsulfonamido)-1-oxo-2-(1,1,1-trifluoropropan-2-yl)isoindolin-5-yl)pyrazolo[1,5-a]pyrimidine-3-carboxamide]: the IC50 on PI3Kγ and at PI3Kγ (p120γ) was below 100 nM each time.
As to `C[C@H](CO)NC(=O)c1c(N)nn2ccc(-c3cc4c(c(NS(C)(=O)=O)c3)C(=O)N([C@@H](C)C(F)(F)F)C4)nc12` [Example 118, 2-Amino-N-[(2R)-1-hydroxypropan-2-yl]-5-{7-methanesulfonamido-1-oxo-2-[(2S)-1,1,1-trifluoropropan-2-yl]-2,3-dihydro-1H-isoindol-5-yl}pyrazolo[1,5-a]pyrimidine-3-carboxamide], the IC50 at PI3Kγ and on PI3Kγ (p120γ) was below 100 nM each time.
Take `CC[C@H](CO)NC(=O)c1c(N)nn2ccc(-c3cc4c(c(NS(C)(=O)=O)c3)C(=O)N([C@@H](C)C(F)(F)F)C4)nc12` [Example 119, 2-Amino-N-[(2R)-1-hydroxybutan-2-yl]-5-{7-methanesulfonamido-1-oxo-2-[(2S)-1,1,1-trifluoropropan-2-yl]-2,3-dihydro-1H-isoindol-5-yl}pyrazolo[1,5-a]pyrimidine-3-carboxamide]: the IC50 on PI3Kγ and on PI3Kγ (p120γ) was below 100 nM throughout.

As a reminder, the IC50 is the concentration that inhibits the measured activity by half.
